Source: paper PMC11571207, “Stereorandomized Oncocins with Preserved Ribosome Binding and Antibacterial Activity” (Journal of Medicinal Chemistry, 2024)
Values after ≈ are worked out from the molar mass of the structure shown. Non-standard residues stand in square brackets, D forms with d. Residues, ends and D or L forms follow the SMILES beside them. No end group written: not given here.

Assays:
E. coli BW25113 WT = details: Table S1, 16-20 h at 37 °C; for MIC E. coli BW25113 WT, 12.5% MH: 12.5% Müller-Hinton medium pH 7.4; for MIC E. coli BW25113 WT, Full MH: full Müller-Hinton medium pH 7.4
Experimental: (§1) Minimum inhibitory concentration assay
(§2) Antimicrobial activity was assayed against P. aeruginosa PAO1, K. pneumoniae NCTC418, E. coli W3110, A. baumannii ATCC 19606, methicillin-resistant S. aureus COL (MRSA), and for selected peptides on P. aeruginosa PA14 and the polymyxin-B-resistant derivative PA14 2P4, as well as the clinical isolates ZEM-1A and ZEM9A, K. pneumoniae OXA-48, S. aureus Newman, Enterobacter cloacae and Burkholderia cenocepacia. The minimal inhibitory concentration (MIC) was determined by using broth microdilution method. A colo ny of bacteria was picked and grown in Luria-Bertani (LB) medium overnight at 37°C. For E. coli BW25113 sbmA::kan the medium was supplemented with 25 mg/L of kanamycin. The next day, the culture was then regrown in LB medium to log phase (OD600 = 0.6 to 0.8), which lasted approximately 4 h, and diluted to an OD600 of 0.022 in the desired medium. Stock solutions of 1 mg/mL of the samples were prepared in sterilized milliQ water and diluted to the beginning concentration of 64 μg/mL in 300 μL Mueller Hinton (MH)-medium. The diluted samples were added to first well of 96-well microtiter plate (TPP, untreated, Faust Laborbedarf, AG, Schaffhausen) and diluted serially by ½. Finally, 4 μL of the bacterial suspension was inoculated into the sample solutions (150 μL/well) with a final inoculation of about 5∙10^5 CFU/mL. The plates were then incubated at 37°C for 15-18h. For each assay, sterility (broth only) and growth control (broth with bacterial inoculum, without antibiotics) were checked with two columns in the plate. The next day, 15 μL of 3-(4,5-dimethylthiazol-2-yl)-2,5-diphenyltetrazolium bromide (MTT) was added to each well of the plate, such a way that MIC was defined as the lowest concentration of the peptide that inhibited visible growth of the tested […]
(§3) Table S1. Activity of stereorandomized and diastereomeric oncocins against E. coli BW25113 WT and BW25113 sbmA::kan mutant in full and 12.5% MH, at pH 7.4. […]
(§4) a) Minimum inhibitory concentration (MIC, μg/mL) was determined on E. coli BW25113 WT and […]

[1] = tested on: E. coli BW25113 sbmA::kan; details: Table S1, sbmA::kan mutant, 16-20 h at 37 °C; for MIC E. coli BW25113 SbmA-, 12.5% MH: 12.5% Müller-Hinton medium pH 7.4; for MIC E. coli BW25113 SbmA-, Full MH: full Müller-Hinton medium pH 7.4
Experimental: as §1, §2, §3, §4

[2] = tested on: E. coli ribosome, U2506 of the 23S rRNA; assay: Ribosome footprinting (CMCT modification of U2506); assay type: binding; details: 1 μM peptide, 10.5 μM CMCT, purified E. coli ribosomes (5 pmol), 25 °C; primer extension, sequencing gel
Experimental: A 5 mL culture of E. coli MG1655 (WT-cells) was grown in LB overnight (220 rpm, 37 °C). One liter LB medium was inoculated, and bacteria were grown to OD = 0.6 (220 rpm. 37 °C); cells were centrifuged in centrifuge bottles, and the pellet was resuspended in ice-cold water and transferred in 50 mL falcon tubes. Falcon tubes were centrifuged, the supernatant was removed, the pellet was resuspended in 15 mL polysome buffer (TRIS/HCl pH 7.5 20 mM, NH4Cl 100 mM, MgCl2 10 mM, EDTA 0.5 mM, β-mercaptoethanol 60 mM), frozen dropwise in N2 (l), and stored at −80 °C. The cells were ground in CryoMil with the standard program (1 min precooling, 2 min grinding 5/s, 2 min cooling, 2 min grinding 5/s). The powder was transferred in 50 mL falcon tubes containing N2 (l) and stored at −80 °C. The lysates were thawed with a water bath (30 °C), put on ice, transferred to precooled Eppendorf tubes, and centrifuged (5000 g, 2 min, 4 °C). The clear lysate was transferred to new precooled tubes, centrifuged (14 000 g, 10 min, 4 °C), and the supernatant was transferred to new precooled tubes. 300 mL of clear lysate was loaded on a 10–50% sucrose gradient in CMCT buffer (K-borate buffer pH 8 80 mM, MgCl2 25 mM, NH4Cl 100 mM) and ultracentrifuged (3 h, 234 050 g, 4 °C). The fractions containing monosomes and polysomes were collected and ultracentrifuged overnight (16 h, 260 800 g, 4 °C). The supernatant was discarded, and the pellet was washed with ice-cold CMCT buffer. The ribosomes were resuspended in 100 μL CMCT buffer with a mini magnetic stirring bar and stored on ice. The concentration of ribosomes was measured in 1/200 dilution in water.
Ribosomes (5 pmol) were mixed with 8 μL of CMCT buffer, the compound of interest 1 μM, and water to a final volume of 20 μL in a precooled tube and incubated at 25 °C for 10 min. 20 μL of CMCT (10.5 μM) in water was added and incubated at 25 °C for 30 min. The reaction was stopped with 160 μL of EDTA (30 μM), and the samples were stored on ice.
160 μL portion of RNA resuspension buffer and 40 μL of 10% SDS were added, and the samples were vigorously resuspended. 400 μL of prewarmed acid phenol was added, and the samples were incubated on a thermomixer (5 min, 1200 rpm, 65 °C). The samples were put on ice for 5 min and centrifuged (5 min, 14 000 g, RT). The watery phase was transferred to a new precooled tube, 400 μL of phenol–chloroform–isoamyl alcohol (4 °C) was added, and the samples were mixed (5 min, 1200 rpm, RT). The samples were centrifuged again (5 min, 14 000g, RT), and the watery phase was transferred to another precooled tube. 34 μL of 3 M NaOAc pH 5.5, 0.8 μL of Glycoblue and 400 μL of isopropanol were added, and the samples were incubated for 3 h at −80 °C. The samples were then centrifuged (40 min, 21 000g, 4 °C), and the pellet was washed with ice-cold 70% EtOH. The residual liquid was removed, and the samples were dried (5 min, 37 °C). The samples were resuspended in 20 μL of water, the concentration was measured, and the samples were −80 °C.
Primers designed to probe the positions 2506 of the 23S rRNA (5-[sequence]-3′) were labeled with radioactive phosphate (γ^32 P-ATP). […] To prepare primers for one reaction, 1 μL of primer (0.3 μM), 0.4 μL of 5× PNK-buffer, 0.25 μL of water, 0.2 μL of γ^32 P-ATP, and 0.15 μL of T4 PNK were mixed and incubated at 37 °C.

E. coli W3110 = assay: Time-killing kinetic assay, E. coli; assay type: cell-based, Escherichia coli; details: 8× MIC, full MHB pH 7.4, 0-6 h, n = 6
Experimental: (§5) Time-Killing Kinetic Assay
(§6) Single colonies of E. coli W3110 and K. pneumoniae NCTC418 were picked and grown overnight with shaking (180 rpm) in LB (Sigma-Aldrich, Buchs, Switzerland) medium 5 mL overnight at 37 °C. The overnight bacterial cultures were diluted to OD600 = 0.002 (2 × 10^6 CFU/mL) in fresh MHB medium. Stock solutions of AMPs in sterilized milliQ water were prepared in 1 mg/mL and were diluted to two times more than required concentration in fresh MHB (Sigma- Aldrich, Buchs, Switzerland) medium at pH 7.4. 100 μL of prepared bacteria solution in MHB and 100 μL of samples in MHB were mixed in a 96-well microtiter plate (TPP, untreated, Corning Incorporated, Kennebunk, USA). Untreated bacteria at 1 × 10^6 CFU/mL were used as a growth control. 96-well microtiter plates were incubated in 37 °C with shaking (180 rpm). Surviving bacteria were quantified at 0, 0.5, 1, 2, 4 and 6 h by plating 10 -fold dilutions of the sample in sterilized normal saline on LB agar plates. LB agar plates were incubated at 37 °C for 10 h, and the number of individual colonies was counted at each time point. The assay was performed in triplicate in a biosafety level 2 lab. […]

K. pneumoniae NCTC418 = assay: Time-killing kinetic assay, K. pneumoniae; assay type: cell-based, Klebsiella pneumoniae; details: 8× MIC, full MHB pH 7.4, 0-6 h, n = 6
Experimental: as §5, §6

Row | Molecule | MIC E. coli BW25113 WT, 12.5% MH (E. coli BW25113 WT) [µg/mL] | MIC E. coli BW25113 WT, Full MH (E. coli BW25113 WT) [µg/mL] | MIC E. coli BW25113 SbmA-, 12.5% MH [1] [µg/mL] | MIC E. coli BW25113 SbmA-, Full MH [1] [µg/mL] | Protection of U2506 of 23S rRNA from CMCT modification (band at C2507) [2] | Killing profile against E. coli (E. coli W3110) | Killing profile against K. pneumoniae (K. pneumoniae NCTC418)
1 | CC[C@H](C)[C@H](NC(=O)[C@H](CCCNC(=N)N)NC(=O)[C@H](CCCNC(=N)N)NC(=O)[C@@H]1CCCN1C(=O)[C@@H]1CCCN1C(=O)[C@H](CCCNC(=N)N)NC(=O)[C@@H]1CCCN1C(=O)[C@H](CCCNC(=N)N)NC(=O)[C@@H]1CCCN1C(=O)[C@@H](CC(C)C)NC(=O)[C@H](Cc1ccc(O)cc1)NC(=O)[C@@H]1CCCN1C(=O)[C@@H]1CCCN1C(=O)[C@H](CCCCN)NC(=O)[C@H](CC(=O)O)NC(=O)[C@@H](N)C(C)C)C(=O)N[C@@H](Cc1ccc(O)cc1)C(=O)N[C@@H](CC(N)=O)C(=O)N[C@@H](CCCNC(=N)N)C(N)=O [DL7-Onc] (H-VDKPPY[dL]PRPRPPRRIYNR-NH2) | 32 (≈ 13.4 µM) | > 64 | 32 (≈ 13.4 µM) | > 64 |  |  | 
2 | VDKPPYLPRPRPPRRIYNR [sr14Nterm-Onc] (VDKPPYLPRPRPPRRIYNR-NH2; also: residues 1-14 stereorandomized (1:1 L/D mixture)) | 16 | > 64 | 16 | > 64 | did not protect U2506 from CMCT modification |  | 
3 | VDKPPYLPRPRPPRRIYNR [sr5Cterm-Onc] (VDKPPYLPRPRPPRRIYNR-NH2; also: residues 15-19 stereorandomized (1:1 L/D mixture)) [oncocin with the five C-terminal residues stereorandomized] |  |  |  |  | protected from CMCT modification | comparable kinetics to L-Onc | comparable kinetics to L-Onc
4 | CC[C@@H](C)[C@@H](NC(=O)[C@@H](CCCNC(=N)N)NC(=O)[C@@H](CCCNC(=N)N)NC(=O)[C@H]1CCCN1C(=O)[C@H]1CCCN1C(=O)[C@@H](CCCNC(=N)N)NC(=O)[C@H]1CCCN1C(=O)[C@@H](CCCNC(=N)N)NC(=O)[C@H]1CCCN1C(=O)[C@@H](CC(C)C)NC(=O)[C@@H](Cc1ccc(O)cc1)NC(=O)[C@H]1CCCN1C(=O)[C@H]1CCCN1C(=O)[C@@H](CCCCN)NC(=O)[C@@H](CC(=O)O)NC(=O)[C@H](N)C(C)C)C(=O)N[C@H](Cc1ccc(O)cc1)C(=O)N[C@H](CC(N)=O)C(=O)N[C@H](CCCNC(=N)N)C(N)=O [D-Onc] (H-[dV][dD][dK][dP][dP][dY][dL][dP][dR][dP][dR][dP][dP][dR][dR][dI][dY][dN][dR]-NH2) | 16 (≈ 6.69 µM) | > 64 | 16 (≈ 6.69 µM) | > 64 |  |  | 
5 | VDKPPYLPRPRPPRRIYNR [sr8Cterm-Onc] (VDKPPYLPRPRPPRRIYNR-NH2; also: residues 12-19 stereorandomized (1:1 L/D mixture)) [oncocin with 8 C-terminal residues stereorandomized] |  |  |  |  | protected from CMCT modification | comparable kinetics to L-Onc | comparable kinetics to L-Onc
6 | VDKPPYLPRPRPPRRIYNR [sr9Cterm-Onc] (VDKPPYLPRPRPPRRIYNR-NH2; also: residues 11-19 stereorandomized (1:1 L/D mixture)) | 4 | 32 | 8 | > 64 | protected from CMCT modification | comparable kinetics to L-Onc | comparable kinetics to L-Onc
7 | polymyxin B [PMB, reference compound] | 1 to 2 | 2 | 1 | 1 |  |  | 
8 | CC[C@H](C)[C@H](NC(=O)[C@@H](CCCNC(=N)N)NC(=O)[C@H](CCCNC(=N)N)NC(=O)[C@@H]1CCCN1C(=O)[C@@H]1CCCN1C(=O)[C@H](CCCNC(=N)N)NC(=O)[C@@H]1CCCN1C(=O)[C@H](CCCNC(=N)N)NC(=O)[C@@H]1CCCN1C(=O)[C@H](CC(C)C)NC(=O)[C@H](Cc1ccc(O)cc1)NC(=O)[C@@H]1CCCN1C(=O)[C@@H]1CCCN1C(=O)[C@H](CCCCN)NC(=O)[C@H](CC(=O)O)NC(=O)[C@@H](N)C(C)C)C(=O)N[C@@H](Cc1ccc(O)cc1)C(=O)N[C@@H](CC(N)=O)C(=O)N[C@H](CCCNC(=N)N)C(N)=O [Onc112, reference compound] (H-VDKPPYLPRPRPPR[dR]IYN[dR]-NH2) | 4 (≈ 1.67 µM) | 16 (≈ 6.69 µM) | 4 (≈ 1.67 µM) | > 64 |  |  | 
9 | CC[C@H]1OC(=O)[C@H](C)[C@@H](O[C@H]2C[C@@](C)(OC)[C@@H](O)[C@H](C)O2)[C@H](C)[C@@H](O[C@@H]2O[C@H](C)C[C@H](N(C)C)[C@H]2O)[C@](C)(O)C[C@@H](C)CN(C)[C@H](C)[C@@H](O)[C@]1(C)O [AZM, azithromycin, reference compound] |  |  |  |  |  | acted bacteriostatically | acted bacteriostatically
